15 compounds from US9018242B2, “Salt form of tyrosine kinase inhibitor” (Jiangsu Simcere Pharmaceutical R&D Co., Ltd, priority 2011, dated 2015) can be followed below.

A short description of series [1]: Hygroscopicity measurement (weight gain). The class given is physicochemical. The conditions noted are these: 25±1° C., relative humidity 80±2%, 24 hours. As to the method: The method for measuring the hygroscopicity may include: placing a certain amount of a sample to be tested into a precisely weighed glass weighing bottle (m1) with a plug and precisely weighing (m2); placing the opened weighing bottle into a thermostatic dryer (with saturated ammonium sulfate solution placed at the bottom, with a relative humidity of 80±2%) at 25±1° C. for 24 hours; covering the weighing bottle with the plug and precisely weighing (m3), and calculating the percent of weight gain of the sample to be tested according to the following equation: […]
The measurement method includes: placing a certain amount of sample to be tested into a precisely weighed glass weighing bottle (m1) with a plug and precisely weighing (m2); placing the opened weighing bottle in a thermostated dryer (with saturated ammonium sulfate solution placed at the bottom, with a relative humidity of 80±2%) at 25±1° C. for 24 hours; covering the weighing bottle with the plug and precisely weighing (m3).
Characterization of the hygroscopicity and definition of the hygroscopic weight gain:
Deliquescence: sufficient moisture was absorbed to form liquid;
Slight hygroscopicity: hygroscopic weight gain was less than 2% and not less than 0.2%: […]

Series [2] is described as follows: Solubility in water by HPLC. The class given is physicochemical. The conditions noted are these: purified water, 25° C.; for solubility at 30 min: thermodynamic from solid. As for the experimental part: Liquid chromatograph: Agilent 1200 HPLC system (diode array detector), ChemStation
Mobile phase: acetonitrile/water
Detection wavelength: 264 nm
About 100 mg sample to be tested was precisely weighed and placed into a 100 ml graduated flask at 25° C.; an appropriate amount of solvent [acetonitrile/water (80:20)] was added to dissolve the sample under ultrasonic sound, and the solution was diluted to a given scale and shaken up; 10 μl resulting solution was precisely measured and loaded into the liquid chromatograph, the chromatogram was recorded, and the peak area Scontrol was measured.
10 ml purified water was measured and placed into a 25 ml Kjeldahl flask. The sample to be tested was gradually added at 25° C. until an insoluble solid appeared in the solution. The solution was treated under ultrasonic sound for 30 min and the insoluble solid was filtered off. 10 μl filtrate was precisely weighed and loaded into the liquid chromatograph, the chromatogram was recorded, and the peak area Stest was measured.

Series [3] can be described thus: Plasma exposure (AUC) in rats after gavage administration. The class given is in vivo. The conditions noted are these: rat, po, male SD rats, 10 mg/kg (based on pharmaceutically active compound), salts dissolved in pure water, active compound as suspension in 0.5% CMC, up to 24 h. As for the experimental part: Laboratory animal: male SD rats
Dosage: 10 mg/kg (based on pharmaceutically active compound)
Formulation for salts: dissolving in pure water
Formulation for pharmaceutically active compound: suspension in CMC (carboxymethylcellulose), 0.5%
Animal Grouping and Testing Course:
Each group includes three male rats having a weight of 180 to 210 g. Gavage administration was performed; the blood was collected at point of time: 5 min, 15 min, 30 min, 45 min, 1 h, 2 h, 4 h, 6 h, 10 h and 24 h; about 250 μl blood was collected from orbital venous plexus into a heparin-containing tube, centrifuged, and 100 μl plasma was used for LC-MS analysis.

A word on the solubility: it is the concentration that dissolves in the medium under given conditions. Low values mean a poorly soluble substance, high ones a readily soluble substance. The term AUC(0-t) denotes the area under the concentration-time curve up to a stated or last time point. Consider `CCN(CC)CCNC(=O)c1c(C)[nH]c2c1CCC/C2=C1/C(=O)Nc2ccc(F)cc21.Cl` [Hydrochloride, (Z)—N-[2-(diethylamino)ethyl]-2-methyl-7-(1,2-dihydro-5-fluoro-2-oxo-3H-indol-3-ylidene)-4,5,6,7-tetrahydro-1H-indol-3-carboxamide hydrochloride], for which the Hygroscopicity entry in series [1] is on record as “Almost no hygroscopicity”. For the same compound, the solubility at 30 min in series [2] came out at 22.8 mg/mL. Also, in series [3], the exposure AUC(0-t) was 185 ng·h/mL.
As to `CC(=O)O.CCN(CC)CCNC(=O)c1c(C)[nH]c2c1CCC/C2=C1/C(=O)Nc2ccc(F)cc21` [Acetate, (Z)—N-[2-(diethylamino)ethyl]-2-methyl-7-(1,2-dihydro-5-fluoro-2-oxo-3H-indol-3-ylidene)-4,5,6,7-tetrahydro-1H-indol-3-carboxamide acetate], the Hygroscopicity result in series [1] is listed as “Strong hygroscopicity (hygroscopic weight gain was not less than 15%)”. In series [2], this compound had a solubility at 30 min of 30.7 mg/mL.
Regarding `CCN(CC)CCNC(=O)c1c(C)[nH]c2c1CCC/C2=C1/C(=O)Nc2ccc(F)cc21.Cc1ccc(S(=O)(=O)O)cc1` [P-toluenesulfonate, (Z)—N-[2-(diethylamino)ethyl]-2-methyl-7-(1,2-dihydro-5-fluoro-2-oxo-3H-indol-3-ylidene)-4,5,6,7-tetrahydro-1H-indol-3-carboxamide p-toluenesulfonate], the Hygroscopicity result in series [1] was “Slight hygroscopicity (hygroscopic weight gain was less than 2% and not less than 0.2%)”. In addition, the solubility at 30 min in series [2] worked out at 0.419 mg/mL.
Regarding `CCN(CC)CCNC(=O)c1c(C)[nH]c2c1CCC/C2=C1/C(=O)Nc2ccc(F)cc21.O=C(O)/C=C/C(=O)O` [Fumarate, (Z)—N-[2-(diethylamino)ethyl]-2-methyl-7-(1,2-dihydro-5-fluoro-2-oxo-3H-indol-3-ylidene)-4,5,6,7-tetrahydro-1H-indol-3-carboxamide fumarate], the Hygroscopicity entry in series [1] was “Slight hygroscopicity (hygroscopic weight gain was less than 2% and not less than 0.2%)”. The solubility at 30 min in series [2] worked out at 0.0168 mg/mL.
As to `CCN(CC)CCNC(=O)c1c(C)[nH]c2c1CCC/C2=C1/C(=O)Nc2ccc(F)cc21.O=C(O)CC(O)(CC(=O)O)C(=O)O` [Citrate, (Z)—N-[2-(diethylamino)ethyl]-2-methyl-7-(1,2-dihydro-5-fluoro-2-oxo-3H-indol-3-ylidene)-4,5,6,7-tetrahydro-1H-indol-3-carboxamide citrate], in series [1], the Hygroscopicity entry was “Slight hygroscopicity (hygroscopic weight gain was less than 2% and not less than 0.2%)”. In addition, the solubility at 30 min in series [2] turned out to be 38.2 mg/mL. In addition, the exposure AUC(0-t) in series [3] amounted to 838 ng·h/mL.
Turning to `CCN(CC)CCNC(=O)c1c(C)[nH]c2c1CCC/C2=C1/C(=O)Nc2ccc(F)cc21.O=P(O)(O)O` [Phosphate, (Z)—N-[2-(diethylamino)ethyl]-2-methyl-7-(1,2-dihydro-5-fluoro-2-oxo-3H-indol-3-ylidene)-4,5,6,7-tetrahydro-1H-indol-3-carboxamide phosphate], the Hygroscopicity result in series [1] is “Slight hygroscopicity (hygroscopic weight gain was less than 2% and not less than 0.2%)”. In series [2], this compound yielded a solubility at 30 min of 29.7 mg/mL. Also, the exposure AUC(0-t) in series [3] is 322 ng·h/mL.
On to `CCN(CC)CCNC(=O)c1c(C)[nH]c2c1CCC/C2=C1/C(=O)Nc2ccc(F)cc21.O=S(=O)(O)c1ccccc1` [Benzenesulfonate, (Z)—N-[2-(diethylamino)ethyl]-2-methyl-7-(1,2-dihydro-5-fluoro-2-oxo-3H-indol-3-ylidene)-4,5,6,7-tetrahydro-1H-indol-3-carboxamide benzenesulfonate], for which the Hygroscopicity entry in series [1] was “Hygroscopicity (hygroscopic weight gain was less than 15% and not less than 2%)”. The solubility at 30 min in series [2] was found to be 19.2 mg/mL.
`CCN(CC)CCNC(=O)c1c(C)[nH]c2c1CCC/C2=C1/C(=O)Nc2ccc(F)cc21.O=C(O)C(O)C(O)C(=O)O` [L-tartrate, (Z)—N-[2-(diethylamino)ethyl]-2-methyl-7-(1,2-dihydro-5-fluoro-2-oxo-3H-indol-3-ylidene)-4,5,6,7-tetrahydro-1H-indol-3-carboxamide L-tartrate]: in series [1], the Hygroscopicity entry was “Slight hygroscopicity (hygroscopic weight gain was less than 2% and not less than 0.2%)”. In addition, the solubility at 30 min in series [2] amounted to 10.6 mg/mL.
Take `CC(O)C(=O)O.CCN(CC)CCNC(=O)c1c(C)[nH]c2c1CCC/C2=C1/C(=O)Nc2ccc(F)cc21` [Lactate, (Z)—N-[2-(diethylamino)ethyl]-2-methyl-7-(1,2-dihydro-5-fluoro-2-oxo-3H-indol-3-ylidene)-4,5,6,7-tetrahydro-1H-indol-3-carboxamide lactate]: the Hygroscopicity result in series [1] was “Hygroscopicity (hygroscopic weight gain was less than 15% and not less than 2%)”. Further, the solubility at 30 min in series [2] was determined as 24 mg/mL. For the same compound, the AUC(0-t) in series [3] is 652 ng·h/mL.
For the compound `CCN(CC)CCNC(=O)c1c(C)[nH]c2c1CCC/C2=C1/C(=O)Nc2ccc(F)cc21.O=C(O)/C=C\C(=O)O` [Maleate, (Z)—N-[2-(diethylamino)ethyl]-2-methyl-7-(1,2-dihydro-5-fluoro-2-oxo-3H-indol-3-ylidene)-4,5,6,7-tetrahydro-1H-indol-3-carboxamide maleate], the Hygroscopicity entry in series [1] was “Slight hygroscopicity (hygroscopic weight gain was less than 2% and not less than 0.2%)”. Besides, the solubility at 30 min in series [2] came to 1.32 mg/mL.
In the case of `CCN(CC)CCNC(=O)c1c(C)[nH]c2c1CCC/C2=C1/C(=O)Nc2ccc(F)cc21.O=C(O)CCC(=O)O` [Succinate, (Z)—N-[2-(diethylamino)ethyl]-2-methyl-7-(1,2-dihydro-5-fluoro-2-oxo-3H-indol-3-ylidene)-4,5,6,7-tetrahydro-1H-indol-3-carboxamide succinate], the Hygroscopicity result in series [1] was “Slight hygroscopicity (hygroscopic weight gain was less than 2% and not less than 0.2%)”. This compound also yielded a solubility at 30 min in series [2] of 13.4 mg/mL.
Consider `CCN(CC)CCNC(=O)c1c(C)[nH]c2c1CCC/C2=C1/C(=O)Nc2ccc(F)cc21.O=S(=O)(O)O` [Sulfate, (Z)—N-[2-(diethylamino)ethyl]-2-methyl-7-(1,2-dihydro-5-fluoro-2-oxo-3H-indol-3-ylidene)-4,5,6,7-tetrahydro-1H-indol-3-carboxamide sulfate], for which the Hygroscopicity entry in series [1] was “Slight hygroscopicity (hygroscopic weight gain was less than 2% and not less than 0.2%)”. In addition, the solubility at 30 min in series [2] was found to be 0.236 mg/mL.
Take `CCN(CC)CCNC(=O)c1c(C)[nH]c2c1CCC/C2=C1/C(=O)Nc2ccc(F)cc21.CS(=O)(=O)O` [Methanesulfonate, (Z)—N-[2-(diethylamino)ethyl]-2-methyl-7-(1,2-dihydro-5-fluoro-2-oxo-3H-indol-3-ylidene)-4,5,6,7-tetrahydro-1H-indol-3-carboxamide methanesulfonate]: in series [1], the Hygroscopicity entry is given as “Strong hygroscopicity (hygroscopic weight gain was not less than 15%)”. In series [2], this compound gave a solubility at 30 min of 12.3 mg/mL.
Consider `Br.CCN(CC)CCNC(=O)c1c(C)[nH]c2c1CCC/C2=C1/C(=O)Nc2ccc(F)cc21` [Hydrobromate, (Z)—N-[2-(diethylamino)ethyl]-2-methyl-7-(1,2-dihydro-5-fluoro-2-oxo-3H-indol-3-ylidene)-4,5,6,7-tetrahydro-1H-indol-3-carboxamide hydrobromate], for which, in series [1], the Hygroscopicity result is reported as “Almost no hygroscopicity”. Further, the “Solubility in Water” value in series [2] is 3.5922 mg/mL.
On to “(Z)—N-[2-(diethylamino)ethyl]-2-methyl-7-(1,2-dihydro-5-fluoro-2-oxo-3H-indol-3-ylidene)-4,5,6,7-tetrahydro-1H-indol-3-carboxamide L-mandelate”, for which the Hygroscopicity entry in series [1] was “Hygroscopicity (hygroscopic weight gain was less than 15% and not less than 2%)”. The “Solubility in Water” value in series [2] was found to be 14.7218 mg/mL.
